Details: Liquid, Gas chromatography

Cc1coc2c1CC[C@@H](C)C2 [(R)-menthofuran]
Details	vapor or sublimation pressure [kPa]
298.15 K	0.036
374.3 K	2.93
380 K	3.76
400 K	8.37
420 K	17.06
482.4 K	101.23

Source: the NIST ThermoML archive (doi:10.1016/j.jct.2016.03.020)
